Patent publication US5869609A, “G protein coupled glutamate receptors” (priority 1995, dated 1999)
Like-named read-outs stand apart in the source and are kept apart here.

What was measured:
[1] = target: T1, GluG R encoded by clone 45-A (Rattus norvegicus, UniProt P23385); assay: Voltage clamp assay of inhibition of glutamic acid-evoked current in injected oocytes; format: cell-based; conditions: 1 mM DL-AP3; 10 μM glutamic acid; read-out: current evoked by 10 μM glutamic acid, % of the control
T1 construct: expressed in transfected cells; host or cells: Xenopus oocytes injected with RNA transcribed in vitro from clone 45-A
T1 sequence (P23385 19-1199): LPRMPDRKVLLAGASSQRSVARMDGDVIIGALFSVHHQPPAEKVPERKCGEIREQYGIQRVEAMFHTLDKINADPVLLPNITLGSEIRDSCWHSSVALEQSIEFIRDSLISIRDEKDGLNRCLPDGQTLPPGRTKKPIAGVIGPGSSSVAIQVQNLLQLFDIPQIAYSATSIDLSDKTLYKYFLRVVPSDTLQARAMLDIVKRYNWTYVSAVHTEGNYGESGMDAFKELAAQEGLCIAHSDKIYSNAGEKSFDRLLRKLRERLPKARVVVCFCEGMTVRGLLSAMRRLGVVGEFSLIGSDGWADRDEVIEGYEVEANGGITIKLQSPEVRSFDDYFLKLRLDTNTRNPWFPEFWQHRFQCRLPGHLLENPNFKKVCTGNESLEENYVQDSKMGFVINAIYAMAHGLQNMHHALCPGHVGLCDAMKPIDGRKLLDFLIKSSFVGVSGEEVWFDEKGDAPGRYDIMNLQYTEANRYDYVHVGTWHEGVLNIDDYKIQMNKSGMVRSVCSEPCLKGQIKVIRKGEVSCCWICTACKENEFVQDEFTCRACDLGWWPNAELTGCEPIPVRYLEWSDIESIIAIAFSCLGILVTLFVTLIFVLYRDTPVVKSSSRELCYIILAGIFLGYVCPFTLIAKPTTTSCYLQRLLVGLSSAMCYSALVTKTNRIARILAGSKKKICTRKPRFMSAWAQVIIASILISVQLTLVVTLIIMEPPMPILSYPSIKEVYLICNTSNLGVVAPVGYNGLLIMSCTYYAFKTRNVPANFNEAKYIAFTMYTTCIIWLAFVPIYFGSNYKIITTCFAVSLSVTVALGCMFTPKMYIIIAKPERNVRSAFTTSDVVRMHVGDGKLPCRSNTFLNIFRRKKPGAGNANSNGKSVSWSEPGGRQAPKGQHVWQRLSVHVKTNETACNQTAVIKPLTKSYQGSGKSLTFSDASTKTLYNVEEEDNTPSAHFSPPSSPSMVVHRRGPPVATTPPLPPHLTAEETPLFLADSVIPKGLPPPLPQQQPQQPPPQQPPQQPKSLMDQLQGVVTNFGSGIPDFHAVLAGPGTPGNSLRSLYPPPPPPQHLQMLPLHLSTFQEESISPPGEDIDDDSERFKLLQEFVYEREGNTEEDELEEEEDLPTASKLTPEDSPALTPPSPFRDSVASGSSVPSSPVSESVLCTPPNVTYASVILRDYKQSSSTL
Procedure: Voltage clamp assays were also carried out on injected oocytes to measure the inhibition by the putative glutamate G protein coupled receptor antagonist, 2-amino-3-phosphonopropionic acid (AP3).

[2] = test system: rat G protein coupled glutamate receptor; assay: Competition of quisqualate with tritiated glutamic acid on membranes of transfected BHK cells; format: binding; conditions: membranes of BHK 570 and BHK TK^- ts13 clones
Procedure: Transfected cell lines expressing GluG R were identified by the binding of ^3 H-glutamate to membrane preparations from transfected cells. Cell lines expressing low to moderate levels of GluG R are used to set up functional screening assays.
Clones of BHK 570 and BHK TK^- ts13 cells expressing the rat G protein coupled glutamate receptor cDNA were plated in two or three 150 mm maxi-plates culture dishes and were grown to confluency. The cells from each plate were scraped in 5 ml of PBS (phosphate buffered saline, Sigma Chemical Co., St. Louis, Mo.), which was pre-chilled to 4° C. The cells were removed to a chilled centrifuged tube, and the plates were each rinsed with 5 ml of chilled PBS and pooled with the cells. The chilled tubes were spun at 1,000 rpm for two minutes, and the supernatant was discarded. The cells were frozen at either -70° C. or on dry ice. In some cases, the cells were left overnight at -70° C. […] The filters were dried in a microwave oven and counted in a […].
Protein determinations were carried out using a Coomassie Blue-based assay from Pierce Chemical Company (Rockford, Ill.) under conditions set forth by the manufacturer. One hundred microliters of undiluted cell homogenate or BSA standard was added to 2 ml of reagent and the optical density was measured at 595 nm. […]

GluG R = assay: Voltage-clamp recording of oocytes injected with RNA from positive pools of the cerebellum library; format: cell-based, rat; conditions: oocyte injected with RNA from subfractionated pool of 14,000 colonies, approximately 100 ng RNA
Procedure: Plasmid DNA prepared from each of the 10 pools of 100,000 clones, which in total represented one sublibrary of one million clones of the cerebellum cDNA library, was purified by cesium chloride gradient ultracentrifugation. The DNA was transcribed in vitro with T7 RNA polymerase (Pharmacia) in the presence of capped nucleotide (GpppG, Pharamcia). […] The transcription reaction tubes were set up by adding 12 μl of 5× transcription buffer (Stratagene Cloning Systems, La Jolla, Calif.), 3 μl each of 10 mM ATP, CTP, GTP, and UTP, 6 μl of 10 mM GpppG (Pharmacia), 6 μl of 1 mg/ml BSA, 3 μl of 200 mM DTT, 1.5 μl of 40 U/μl RNasin (ProMega Biotech, Madison, Wis.), 8.5 μl of water, 10 μl of cDNA containing 5 to 10 μg DNA, and 1 μl of 70 U/μl T7 RNA polymerase. […] Forty microliters of water was added to the radiolabeled reactions, and 1 μl was removed from each sample and counted to determine total counts. […] The samples were centrifuged to collect the RNA and the RNA pellets were counted to determine the counts incorporated into RNA. […]
The RNA from each of the 10 sublibraries were injected into oocytes as described above and translation was allowed for four days. Expression of GluG R activity was assessed by voltage-clamp assay as described above. […]

[3] = target: T1, GluG R encoded by clone 45-A; format: cell-based
[4] = 100 μM, saturating concentration

NC(CP(=O)(O)O)C(=O)O (racemic) [DL-AP3, 2-amino-3-phosphonopropionic acid]
remaining activity at 1000 µM [1]: 59.3 ± 7.3%

N[C@@H](Cn1oc(=O)[nH]c1=O)C(=O)O [Quisqualic acid, quisqualic acid]
competitive binding to the glutamate receptor expressed by transfected BHK cells [2]: able to competitively bind | actual peak current in response to quisqualate (estimated from a digital panel meter) (GluG R): approximately 1300 nA

Cc1onc(O)c1CC(N)C(=O)O (stereo not drawn) [AMPA, α-amino-3-hydroxy-5-methyl-isoxazole-4-propionic acid]
response relative to 100 μM L-glutamate [3, 4]: ineffective

CN[C@H](CC(=O)O)C(=O)O [NMDA, N-methyl-D-aspartic acid]
response relative to 100 μM L-glutamate ([3]; 100 μM NMDA+10 μM glycine): ineffective

C=C(C)[C@H]1CN[C@H](C(=O)O)[C@H]1CC(=O)O [kainic acid]
response relative to 100 μM L-glutamate ([3]; 1 mM, saturating concentration): ineffective

NC(CCP(=O)(O)O)C(=O)O (centres unmarked) [APB, 2-amino-4-phosphonobytyric acid]
response relative to 100 μM L-glutamate [3, 4]: ineffective

N[C@@H](CC(=O)O)C(=O)O [aspartic acid]
response relative to 100 μM L-glutamate ([3]; 1 mM, saturating concentration): ineffective
